Measurements published in article PMC9727700 (Redox Biology, 2022).

Experiments:
[1] = system: SH-SY5Y cells; assay: Intracellular 4-HNE levels in fatty acid-treated SH-SY5Y cells; assay type: cell-based, human; conditions: 50 μM
[2] = system: SH-SY5Y cells; assay: Rotenone-treated SH-SY5Y cells: mitochondrial membrane potential; assay type: cell-based, human; conditions: rotenone 1 μM; HY08 0.3 μM; NAC 1 μM

| SMILES | intracellular 4-HNE production [1] | rotenone-induced mitochondrial membrane potential loss and cell death [2] |
| --- | --- | --- |
| CCCCC/C=C\C/C=C\C/C=C\C/C=C\CCCC(=O)O [AA, arachidonic acid] | significantly enhanced |  |
| CC(=O)N[C@@H](CS)C(=O)O [NAC, N-Acetyl cysteine] |  | exerted inhibitory effects |
